# pIC50: −log10 of the molar value.
# Tests used:
# Format in all cases: cell-based
# [1] = target: T1, human TLR9 (Homo sapiens, UniProt Q9NR96); test: TLR9 inhibition reporter assay (HEK-Blue cells, SEAP reporter, ODN2006 stimulation); settings: HEK-Blue cells overexpressing human TLR9, SEAP reporter, ODN2006 5 nM
# T1 construct: host or cells: HEK-Blue cells (HEK293-derived reporter line)
# T1 sequence (Q9NR96 26-1032): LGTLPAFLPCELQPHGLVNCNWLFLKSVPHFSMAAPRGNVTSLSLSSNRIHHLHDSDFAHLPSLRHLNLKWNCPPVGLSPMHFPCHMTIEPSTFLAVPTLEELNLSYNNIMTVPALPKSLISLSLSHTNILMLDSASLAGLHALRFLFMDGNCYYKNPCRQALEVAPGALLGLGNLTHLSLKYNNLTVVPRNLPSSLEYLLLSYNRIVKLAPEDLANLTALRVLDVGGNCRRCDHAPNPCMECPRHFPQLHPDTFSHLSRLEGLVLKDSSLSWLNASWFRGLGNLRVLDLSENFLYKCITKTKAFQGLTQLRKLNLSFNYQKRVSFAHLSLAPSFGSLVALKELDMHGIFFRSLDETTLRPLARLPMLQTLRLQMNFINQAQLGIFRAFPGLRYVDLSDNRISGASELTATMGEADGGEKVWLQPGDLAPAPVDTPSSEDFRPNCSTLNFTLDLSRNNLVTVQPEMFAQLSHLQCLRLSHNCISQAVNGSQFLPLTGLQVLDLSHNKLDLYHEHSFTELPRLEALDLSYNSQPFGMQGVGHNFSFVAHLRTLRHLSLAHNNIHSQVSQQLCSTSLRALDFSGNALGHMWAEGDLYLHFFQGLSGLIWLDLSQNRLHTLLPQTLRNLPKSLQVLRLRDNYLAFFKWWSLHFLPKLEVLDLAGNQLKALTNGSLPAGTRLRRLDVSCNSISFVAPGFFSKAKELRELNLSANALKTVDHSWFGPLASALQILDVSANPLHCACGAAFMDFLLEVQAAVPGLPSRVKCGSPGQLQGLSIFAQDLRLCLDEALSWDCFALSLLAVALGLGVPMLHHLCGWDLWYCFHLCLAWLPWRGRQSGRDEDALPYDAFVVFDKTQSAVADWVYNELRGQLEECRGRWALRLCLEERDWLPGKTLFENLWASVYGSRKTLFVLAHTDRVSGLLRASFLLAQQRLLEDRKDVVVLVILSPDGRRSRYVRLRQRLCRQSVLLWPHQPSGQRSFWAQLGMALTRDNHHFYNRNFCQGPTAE
# In short: (§1)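 After 22 h at 37 °C, SEAP secretion was measured from human TLR7-, TLR8- or TLR9-expressing HEK-Blue reporter cells given compound (0.05 nM–50 μM) 30 min before agonist: 7.5 μM gardiquimod, 15.9 μM R848 or 5 nM ODN2006 respectively. Percent inhibition referenced to agonist-plus-DMSO and known-inhibitor wells.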
# [2] = target: T2, human TLR8 (Homo sapiens, UniProt Q9NR97); test: TLR8 inhibition reporter assay (HEK-Blue cells, SEAP reporter, R848 stimulation); settings: HEK-Blue cells overexpressing human TLR8, SEAP reporter, R848 15.9 μM
# T2 construct: host or cells: HEK-Blue cells (HEK293-derived reporter line)
# T2 sequence (Q9NR97 27-1041): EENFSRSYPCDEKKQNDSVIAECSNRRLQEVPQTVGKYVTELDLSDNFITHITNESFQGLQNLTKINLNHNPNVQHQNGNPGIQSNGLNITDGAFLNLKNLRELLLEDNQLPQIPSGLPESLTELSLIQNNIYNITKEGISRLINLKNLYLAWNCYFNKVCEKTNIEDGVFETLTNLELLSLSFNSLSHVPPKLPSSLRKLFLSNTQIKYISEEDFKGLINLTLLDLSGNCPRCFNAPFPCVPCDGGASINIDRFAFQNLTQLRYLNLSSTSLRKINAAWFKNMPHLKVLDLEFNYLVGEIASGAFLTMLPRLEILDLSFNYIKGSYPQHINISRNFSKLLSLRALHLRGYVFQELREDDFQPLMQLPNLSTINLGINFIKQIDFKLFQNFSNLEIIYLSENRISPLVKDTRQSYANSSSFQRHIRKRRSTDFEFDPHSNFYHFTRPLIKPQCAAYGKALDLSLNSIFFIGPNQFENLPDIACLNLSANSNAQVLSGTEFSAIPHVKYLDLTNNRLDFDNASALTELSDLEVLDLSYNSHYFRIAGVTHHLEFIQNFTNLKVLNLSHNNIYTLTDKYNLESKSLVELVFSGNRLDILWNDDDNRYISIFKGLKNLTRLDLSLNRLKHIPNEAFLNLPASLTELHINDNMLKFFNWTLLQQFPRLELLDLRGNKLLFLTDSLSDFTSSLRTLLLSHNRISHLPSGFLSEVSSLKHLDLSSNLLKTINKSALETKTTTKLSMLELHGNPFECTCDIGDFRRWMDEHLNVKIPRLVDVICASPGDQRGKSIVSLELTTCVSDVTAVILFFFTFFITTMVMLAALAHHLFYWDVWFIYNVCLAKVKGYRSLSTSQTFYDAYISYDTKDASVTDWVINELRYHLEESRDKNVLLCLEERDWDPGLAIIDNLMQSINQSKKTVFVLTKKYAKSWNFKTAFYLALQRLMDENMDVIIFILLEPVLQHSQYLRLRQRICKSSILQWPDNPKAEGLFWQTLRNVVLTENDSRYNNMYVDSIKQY
# In short: as §1
# [3] = target: T3, human TLR7 (Homo sapiens, UniProt Q9NYK1); test: TLR7 inhibition reporter assay (HEK-Blue cells, SEAP reporter, gardiquimod stimulation); settings: HEK-Blue cells overexpressing human TLR7, SEAP reporter, gardiquimod 7.5 μM
# T3 construct: host or cells: HEK-Blue cells (HEK293-derived reporter line)
# T3 sequence (Q9NYK1 27-1049): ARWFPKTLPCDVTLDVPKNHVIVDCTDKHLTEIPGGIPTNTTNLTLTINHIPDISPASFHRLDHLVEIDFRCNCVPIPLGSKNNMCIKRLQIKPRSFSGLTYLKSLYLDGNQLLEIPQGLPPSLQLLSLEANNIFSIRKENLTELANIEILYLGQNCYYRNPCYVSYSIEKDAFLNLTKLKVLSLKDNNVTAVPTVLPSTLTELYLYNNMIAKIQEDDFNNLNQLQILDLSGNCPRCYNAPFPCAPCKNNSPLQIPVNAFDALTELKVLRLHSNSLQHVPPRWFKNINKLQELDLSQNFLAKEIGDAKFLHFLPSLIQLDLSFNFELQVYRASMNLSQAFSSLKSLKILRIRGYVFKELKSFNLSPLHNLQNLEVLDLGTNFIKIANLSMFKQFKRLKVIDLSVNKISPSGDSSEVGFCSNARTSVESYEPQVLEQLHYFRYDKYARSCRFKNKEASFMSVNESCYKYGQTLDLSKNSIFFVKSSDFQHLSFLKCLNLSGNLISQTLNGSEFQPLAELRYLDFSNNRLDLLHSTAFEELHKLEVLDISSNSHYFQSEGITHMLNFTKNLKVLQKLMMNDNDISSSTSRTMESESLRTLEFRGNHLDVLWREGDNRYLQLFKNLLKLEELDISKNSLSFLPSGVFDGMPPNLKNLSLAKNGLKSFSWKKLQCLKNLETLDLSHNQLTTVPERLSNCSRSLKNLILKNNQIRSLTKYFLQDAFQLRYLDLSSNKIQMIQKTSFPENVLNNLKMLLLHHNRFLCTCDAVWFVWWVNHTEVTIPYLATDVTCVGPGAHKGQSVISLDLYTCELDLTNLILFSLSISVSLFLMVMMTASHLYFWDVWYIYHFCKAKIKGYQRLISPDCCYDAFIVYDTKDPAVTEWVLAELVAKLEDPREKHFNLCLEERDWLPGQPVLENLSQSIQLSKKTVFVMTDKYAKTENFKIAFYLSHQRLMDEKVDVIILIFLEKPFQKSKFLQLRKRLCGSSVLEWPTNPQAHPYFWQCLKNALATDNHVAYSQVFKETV
# In short: as §1
pIC50 [1],pIC50 [2],pIC50 [3],Structure (SMILES)
< 4.30,6.00 to 7.00,6.00 to 7.00,"COc1ccc2nc(Cl)c(CN3CCC(c4ccc5[nH]c(-c6ccnc7[nH]ncc67)c(C(C)C)c5c4)CC3)cc2c1 [Example 902, 2-chloro-3-((4-(3-isopropyl-2-(1H-pyrazolo[3,4-b]pyridin-4-yl)-1H-indol-5-yl)piperidin-1-yl)methyl)-6-methoxyquinoline]"
6.00 to 7.00,> 7.00,> 7.00,"CC(C)c1c(-c2ccnc3[nH]ncc23)[nH]c2ccc(C3CCN(CC(C)(C)CN(C)C)CC3)cc12 [Example 847, 3-(4-(3-isopropyl-2-(1H-pyrazolo[3,4-b]pyridin-4-yl)-1H-indol-5-yl)piperidin-1-yl)-N,N,2,2-tetramethylpropan-1-amine]"
6.00 to 7.00,> 7.00,6.00 to 7.00,"CC(C)c1c(-c2ccnc3c2ccn3S(C)(=O)=O)[nH]c2ccc(C3CCNCC3)cc12 [Example 3, 4-(3-isopropyl-5-(piperidin-4-yl)-1h-indol-2-yl)-1-(methylsulfonyl)-1H-pyrrolo[2,3-b]pyridine]"
6.00 to 7.00,> 7.00,> 7.00,"CC(C)c1c(-c2cc(CO)c3nccn3c2)[nH]c2ccc(C3CCNCC3)cc12 [Example 124, (6-(3-isopropyl-5-(piperidin-4-yl)-1H-indol-2-yl)imidazo[1,2-a]pyridin-8-yl)methanol]"
4.30 to 6.00,6.00 to 7.00,> 7.00,"CC(C)c1c(-c2cc(F)c3nccn3c2)[nH]c2ccc(C3CCN(CC(=O)N(C)C)CC3)cc12 [Example 408, 2-(4-(2-(8-fluoroimidazo[1,2-5a]pyridin-6-yl)-3-isopropyl-1H-indol-5-yl)piperidin-1-yl)-N,N-dimethylacetamide]"
4.30 to 6.00,4.30 to 6.00,4.30 to 6.00,"CC(C)c1c(-c2ccc(C#N)c3[nH]ncc23)[nH]c2ccc(C3CCNCC3)cc12 [Example 235, 4-(3-isopropyl-5-(piperidin-4-yl)-1H-indol-2-yl)-1H-indazole-7-carbonitrile]"
4.30 to 6.00,> 7.00,6.00 to 7.00,"CC(C)c1c(-c2cccn3ncnc23)[nH]c2ccc(C3CCN(CC(C)(C)O)CC3)cc12 [Example 760, 1-(4-(2-([1,2,4]triazolo[1,5-a]pyridin-8-yl)-3-isopropyl-1H-indol-5-yl)piperidin-1-yl)-2-methylpropan-2-ol]"
4.30 to 6.00,> 7.00,> 7.00,"COc1nc(-c2[nH]c3ccc(C4CCN(CC(=O)N(C)C)CC4)cc3c2C(C)C)cn2ncnc12 [Example 292, 2-(4-(3-isopropyl-2-(8-methoxy-[1,2,4]triazolo[1,5-a]pyrazin-6-yl)-1H-indol-5-yl)piperidin-1-yl)-N,N-dimethylacetamide]"
4.30 to 6.00,6.00 to 7.00,6.00 to 7.00,"CC(C)c1c(-c2cnc3[nH]nc(N)c3c2)[nH]c2ccc(C3CCNCC3)cc12 [Example 99, 5-(3-isopropyl-5-(piperidin-4-yl)-1H-indol-2-yl)-1H-pyrazolo[3,4-b]pyridin-3-amine]"
4.30 to 6.00,6.00 to 7.00,6.00 to 7.00,"CC(C)c1c(-c2ccn3cnnc3c2)[nH]c2ccc(C3CCN(CC(=O)N(C)C)CC3)cc12 [Example 305, 2-(4-(2-([1,2,4]triazolo[4,3-a]pyridin-7-yl)-3-isopropyl-1H-indol-5-yl)piperidin-1-yl)-N,N-dimethylacetamide]"
< 4.30,> 7.00,> 7.00,"CC(C)c1c(-c2ccc(C#N)c3ncccc23)[nH]c2ccc(C3CCN(C4COC4)CC3)cc12 [Example 714, 5-(3-isopropyl-5-(1-(oxetan-3-yl)piperidin-4-yl)-1H-indol-2-yl)quinoline-8-carbonitrile]"
4.30 to 6.00,6.00 to 7.00,> 7.00,"CNC(=O)CN1CCC(c2ccc3[nH]c(-c4cc(F)c5nccn5c4)c(C(C)C)c3c2)CC1 [Example 410, 2-(4-(2-(8-fluoroimidazo[1,2-a]pyridin-6-yl)-3-isopropyl-1H-indol-5-yl)piperidin-1-yl)-N-methylacetamide]"
4.30 to 6.00,6.00 to 7.00,4.30 to 6.00,"CCc1c(-c2ccnc3[nH]ncc23)[nH]c2ccc(C3CCN(Cc4cc(-c5ccccc5)on4)CC3)cc12 [Example 897, 3-((4-(3-ethyl-2-(1H-pyrazolo[3,4-b]pyridin-4-yl)-1H-indol-5-yl)piperidin-1-yl)methyl)-5-phenylisoxazole]"
6.00 to 7.00,6.00 to 7.00,6.00 to 7.00,"CCc1c(-c2ccc3oc(=O)[nH]c3c2)[nH]c2ccc(C3CCNCC3)cc12 [Example 168, 5-(3-ethyl-5-(piperidin-4-yl)-1H-indol-2-yl)benzo[d]oxazol-2(3H)-one]"
6.00 to 7.00,4.30 to 6.00,4.30 to 6.00,"Cc1c(-c2ccc3[nH]nnc3c2)[nH]c2ccc(C3CCNCC3)cc12 [Example 52, 5-(3-methyl-5-(piperidin-4-yl)-1H-indol-2-yl)-1H-benzo[d][1,2,3]triazole]"

# From patent publication US11739098B2 (BRISTOL-MYERS SQUIBB COMPANY, priority 2017, dated 2023)
